# Test results as given in patent US12060387B2, “Polypeptide-based shuttle agents for improving the transduction efficiency of polypeptide cargos to the cytosol of target eukaryotic cells, uses thereof, methods and kits relating to same” (priority 2015, dated 2024).
# Read-outs that look alike come from different tables or passages of the source. Where a SMILES comes first, the peptide text is derived from it. Bridges are numbered along the chain shown (N, C = ends). Roman numbers before positions name the chains, in order. Where no end group is shown, it is not given here.
# Experiments:
# [1] = Cell toxicity / % cell viability by flow cytometry (cells in total events v. untreated); format: cell-based, Human; conditions: human, HeLa cells; for viability at 1 min, 20 µM: FIG. 29I, shuttle 20 μM, 1 minute; for viability at 1 h, 3.5 µM: antibody 0.5 μM, shuttle 3.5 μM, read-out: Cell viability (%) (± St. Dev.; n = 3), FIG. 19B
# Description: (§1) The fluorescence of GFP was quantified using flow cytometry (Accuri C6, Becton, Dickinson and Company (BD)). Untreated cells were used to establish a baseline in order to quantify the increased fluorescence due to the internalization of the fluorescent protein in treated cells. The percentage of cells with a fluorescence signal above the maximum fluorescence of untreated cells, “mean %” or “Pos cells (%)”, is used to identify positive fluorescent cells. “Relative fluorescence intensity (FL1-A)” corresponds to the mean of all fluorescence intensities from each cell with a fluorescent signal after fluorescent protein delivery with the shuttle agent. Also, the events scanned by flow cytometry corresponding to cells (size and granularity) were analyzed. The cellular toxicity (% cell viability) was monitored comparing the percentage of cells in the total events scanned of treated cells comparatively to untreated cells.
# [2] = as above; format: cell-based, human; conditions: human, THP-1 cells
# Description: as §1
# [3] = test system: HeLa cells; assay: as above; format: cell-based, Human; conditions: HeLa; Protocol B; shuttle 50 μM; GFP-NLS 5 μM; 10 seconds
# Description: as §1
# [4] = Cell viability (%) (±St. Dev.; n = 3), HeLa, Protocol B, GFP-NLS 5 μM, read-out: Cell viability (%) (±St. Dev.; n = 3)
# [5] = Cell viability (%) (±St. Dev.; n = 3), FIG. 29A, HeLa, Protocol B, shuttle 50 μM, GFP-NLS 5 μM, 10 seconds, read-out: Cell viability (%) (±St. Dev.; n = 3), FIG. 29A
# [6] = Cell viability (%) (±St. Dev.; n = 3), FIG. 29F, read-out: Cell viability (%) (±St. Dev.; n = 3), FIG. 29F
molecule,measurement,setting,value
CC[C@H](C)[C@H](NC(=O)[C@H](CCCCN)NC(=O)[C@H](CCCCN)NC(=O)[C@H](Cc1ccccc1)NC(=O)[C@H](CC(C)C)NC(=O)[C@H](CCCCN)NC(=O)[C@H](Cc1c[nH]c2ccccc12)NC(=O)[C@H](CCCCN)NC(=O)[C@H](Cc1c[nH]cn1)NC(=O)[C@H](C)NC(=O)[C@H](Cc1c[nH]cn1)NC(=O)[C@H](Cc1c[nH]cn1)NC(=O)[C@H](C)NC(=O)[C@H](Cc1c[nH]cn1)NC(=O)[C@H](Cc1c[nH]cn1)NC(=O)[C@H](C)NC(=O)[C@@H](N)Cc1c[nH]cn1)C(=O)NCC(=O)N[C@@H](C)C(=O)N[C@H](C(=O)N[C@@H](CC(C)C)C(=O)N[C@@H](CCCCN)C(=O)N[C@H](C(=O)N[C@@H](CC(C)C)C(=O)N[C@H](C(=O)N[C@H](C(=O)NCC(=O)N[C@@H](Cc1ccc(O)cc1)C(=O)N[C@@H](C)C(=O)N[C@@H](CCCNC(=N)N)C(=O)N[C@@H](C)C(=O)N[C@@H](C)C(=O)N[C@@H](C)C(=O)N[C@@H](CCCNC(=N)N)C(=O)N[C@@H](CCC(N)=O)C(=O)N[C@@H](C)C(=O)N[C@@H](CCCNC(=N)N)C(=O)N[C@@H](C)C(=O)O)[C@@H](C)O)[C@@H](C)O)C(C)C)C(C)C [3HA-CM18-PTD4],"viability at 1 min, 20 µM",[1]; [4],43.6 ± 2.8%
"CC(C)C[C@H](NC(=O)[C@H](CC(C)C)NC(=O)[C@H](CCCCN)NC(=O)[C@H](CCCCN)NC(=O)[C@H](CC(C)C)NC(=O)[C@H](CC(C)C)NC(=O)[C@H](CCCCN)NC(=O)[C@H](CCCCN)NC(=O)[C@H](CC(C)C)NC(=O)[C@H](CC(C)C)NC(=O)[C@@H](N)CS)C(=O)N[C@@H](CCCCN)C(=O)N[C@@H](CCCCN)C(=O)N[C@@H](CS)C(=O)O [C(LLKK)3C, reference compound] (H-CLLKKLLKKLLKKC-OH)","viability at 10 s, 50 µM",[1],61.8 ± 0.1%
CC(C)C[C@H](NC(=O)[C@H](CC(C)C)NC(=O)[C@H](CCCCN)NC(=O)[C@H](CCCCN)NC(=O)[C@H](CC(C)C)NC(=O)[C@H](CC(C)C)NC(=O)[C@H](CCCCN)NC(=O)[C@H](CCCCN)NC(=O)[C@H](CC(C)C)NC(=O)[C@H](CC(C)C)NC(=O)[C@H](CS)NC(=O)[C@H](Cc1c[nH]cn1)NC(=O)[C@H](Cc1c[nH]cn1)NC(=O)[C@H](Cc1c[nH]cn1)NC(=O)[C@H](Cc1c[nH]cn1)NC(=O)[C@H](Cc1c[nH]cn1)NC(=O)[C@@H](N)Cc1c[nH]cn1)C(=O)N[C@@H](CCCCN)C(=O)N[C@@H](CCCCN)C(=O)N[C@@H](CS)C(=O)N[C@@H](Cc1ccc(O)cc1)C(=O)N[C@@H](C)C(=O)N[C@@H](CCCNC(=N)N)C(=O)N[C@@H](C)C(=O)N[C@@H](C)C(=O)N[C@@H](C)C(=O)N[C@@H](CCCNC(=N)N)C(=O)N[C@@H](CCC(N)=O)C(=O)N[C@@H](C)C(=O)N[C@@H](CCCNC(=N)N)C(=O)N[C@@H](C)C(=O)O [His-C(LLKK)3C-PTD4] (H-HHHHHHCLLKKLLKKLLKKCYARAAARQARA-OH),"viability at 10 s, 50 µM",[1],95 ± 2.7%
same,"viability at 1 min, 10 µM",[1],99.5 ± 2.7%
same,"viability at 2 min, 10 µM",[1],94.3 ± 3.2%
same,"viability at 5 min, 10 µM",[1],80.8 ± 4.4%
same,"viability at 15 s, 1 µM",[2],85.2 ± 2.8%
same,"viability at 0.5 min, 1 µM",[2],86 ± 2%
same,"viability at 1 min, 1 µM",[2],86.9 ± 3.8%
same,"viability at 2 min, 1 µM",[2],79.6 ± 2.8%
same,"viability at 24 h, 0.8 µM",[2],97.2 ± 2.2%
same,"viability at 72 h, 0.8 µM",[2],76.6 ± 3.4%
"N=C(N)NCCC[C@H](NC(=O)CNC(=O)[C@@H](N)Cc1ccc(O)cc1)C(=O)N[C@@H](CCCCN)C(=O)N[C@@H](CCCCN)C(=O)N[C@@H](CCCNC(=N)N)C(=O)N[C@@H](CCCNC(=N)N)C(=O)N[C@@H](CCC(N)=O)C(=O)N[C@@H](CCCNC(=N)N)C(=O)N[C@@H](CCCNC(=N)N)C(=O)N[C@@H](CCCNC(=N)N)C(=O)N[C@@H](CS)C(=O)O [TAT-Cys, reference compound]","viability at 10 s, 50 µM","[1]; HeLa, Protocol B, peptide 50 μM, GFP-NLS 5 μM, 10 seconds, read-out: Cell viability (%) (±St. Dev.; n = 3), FIG. 29D",94.6 ± 0.44%
CC[C@H](C)[C@H](NC(=O)[C@@H](NC(=O)[C@H](Cc1ccccc1)NC(=O)[C@@H](N)CCCCN)[C@@H](C)O)C(=O)N[C@H](C(=O)N[C@@H](Cc1ccccc1)C(=O)N1CCC[C@H]1C(=O)N[C@@H](Cc1c[nH]cn1)C(=O)N[C@@H](CC(N)=O)C(=O)N[C@@H](CCC(N)=O)C(=O)N[C@@H](CCCCN)C(=O)NCC(=O)N[C@@H](CC(N)=O)C(=O)N[C@@H](Cc1c[nH]c2ccccc12)C(=O)N[C@@H](CCCCN)C(=O)N[C@@H](CC(N)=O)C(=O)N[C@H](C(=O)N1CCC[C@H]1C(=O)N[C@@H](CO)C(=O)N[C@@H](CC(N)=O)C(=O)N[C@@H](Cc1ccc(O)cc1)C(=O)N[C@@H](Cc1c[nH]cn1)C(=O)N[C@@H](Cc1ccc(O)cc1)C(=O)N[C@@H](CS)C(=O)N1CCC[C@H]1C(=O)N[C@@H](Cc1ccc(O)cc1)C(=O)N[C@@H](C)C(=O)N[C@@H](CCCNC(=N)N)C(=O)N[C@@H](C)C(=O)N[C@@H](C)C(=O)N[C@@H](C)C(=O)N[C@@H](CCCNC(=N)N)C(=O)N[C@@H](CCC(N)=O)C(=O)N[C@@H](C)C(=O)N[C@@H](CCCNC(=N)N)C(=O)N[C@@H](C)C(=O)O)C(C)C)C(C)C [VSVG-PTD4],"viability at 10 s, 50 µM","[1]; HeLa, Protocol B, shuttle 50 μM, GFP-NLS 5 μM, 10 seconds, read-out: Cell viability (%) (±St. Dev.; n = 3), FIG. 29E",100%
GLFEALLELLESLWELLLEAYARAAARQARA [JST-PTD4],"viability at 10 s, 50 µM","[1]; Cell viability (%) (±St. Dev.; n = 3), FIG. 29E, read-out: Cell viability (%) (±St. Dev.; n = 3), FIG. 29E",98.9 ± 0.57%
HHHAHHHKWKLFKKIGAVLKVLTTGYARAAARQARA [HA-CM18-PTD4],"viability at 1 min, 20 µM",[1]; [4],68.3 ± 4.1%
HHHHHHHHHHHHKWKLFKKIGAVLKVLTTGYARAAARQARA [12His-CM18-PTD4],"viability at 1 min, 20 µM",[1]; [4],33.4 ± 4.3%
HHHHHHKKALLALALHHLAHLALHLALALKKAYARAAARQARA [His-LAH4-PTD4],"viability at 10 s, 50 µM","[1]; HeLa, Protocol B, shuttle 50 μM, GFP-NLS 5 μM, 10 seconds, read-out: Cell viability (%) (±St. Dev.; n = 3), FIG. 29A",98 ± 1.5%
HHHHHHKWKLFKKIGAVLKVLTTGGWTLNSAGYLLKINLKALAALAKKIL [His-CM18-Transportan (TPT)],"Cell viability (%) (±St. Dev.; n = 3), FIG. 29E",[3],41.3 ± 3.29%
same,"viability at 10 s, 50 µM",[1]; [5],41.3 ± 3.3%
HHHHHHKWKLFKKIGAVLKVLTTGRRRRRRRRR [His-CM18-9Arg],"Cell viability (%) (±St. Dev.; n = 3), FIG. 29E",[3],45.8 ± 3.53%
same,"viability at 10 s, 50 µM",[1]; [5],45.8 ± 5.4%
HHHHHHKWKLFKKIGAVLKVLTTGYARAAARQARAHHHHHH [His-CM18-PTD4-His],"viability at 1 min, 10 µM","[1]; Cell viability (%) (±St. Dev.; n = 3), FIG. 29G, HeLa, Protocol B, shuttle 10 μM, GFP-NLS 5 μM, incubation 1 min, read-out: Cell viability (%) (±St. Dev.; n = 3), FIG. 29G",68.1 ± 2.7%
same,"viability at 2 min, 10 µM","[1]; Cell viability (%) (±St. Dev.; n = 3), FIG. 29G, HeLa, Protocol B, shuttle 10 μM, GFP-NLS 5 μM, incubation 2 min, read-out: Cell viability (%) (±St. Dev.; n = 3), FIG. 29G",61.6 ± 3.2%
same,"viability at 5 min, 10 µM","[1]; Cell viability (%) (±St. Dev.; n = 3), FIG. 29G, HeLa, Protocol B, shuttle 10 μM, GFP-NLS 5 μM, incubation 5 min, read-out: Cell viability (%) (±St. Dev.; n = 3), FIG. 29G",41.2 ± 4.4%
same,"viability at 1 min, 20 µM",[1]; [4],78.6 ± 1.1%
"HHHHHHYARAAARQARA [His-PTD4, reference compound]","viability at 10 s, 50 µM",[1],96.5 ± 0.28%
HHHKWKLFKKIGAVLKVLTTGYARAAARQARA [3His-CM18-PTD4],"viability at 1 min, 20 µM",[1]; [4],39.2 ± 3.3%
I: KWKLFKKIGAVLKVLTTGRQIKIWFQNRRMKWKKC / II: KWKLFKKIGAVLKVLTTGRQIKIWFQNRRMKWKKC (disulfide I:35-II:35) [dCM18-Penetratin-Cys],"viability at 1 h, 3.5 µM",[1]; HeLa,74 ± 9%
"KWKLFKKIGAVLKVLTTG [CM18, reference compound]","viability at 10 s, 50 µM","[1]; Cell viability (%) (±St. Dev.; n = 3), FIG. 29D, HeLa, Protocol B, peptide 50 μM, GFP-NLS 5 μM, 10 seconds, read-out: Cell viability (%) (±St. Dev.; n = 3), FIG. 29D",95 ± 1.2%
KWKLFKKIGAVLKVLTTGHHHHHHYARAAARQARA [CM18-His-PTD4],"viability at 1 min, 20 µM",[1]; [4],57.7 ± 4.2%
KWKLFKKIGAVLKVLTTGRQIKIWFQNRRMKWKKC [CM18-Penetratin-Cys],"viability at 1 h, 3.5 µM",[1]; HeLa,73 ± 9.5%
LIRLWSHLIHIWFQNRRLKWKKKYARAAARQARA [EB1-PTD4],"viability at 10 s, 50 µM",[1],39 ± 5.6%
same,"viability at 1 min, 10 µM",[1],61.7 ± 2.7%
same,"viability at 2 min, 10 µM",[1],56.6 ± 3.2%
same,"viability at 5 min, 10 µM",[1],55.8 ± 4.4%
MHHHHHHKWKLFKKIGAVLKVLTTGYGRKKRRQRRRC [Met-His-CM18-TAT-Cys],"viability at 10 s, 50 µM","[1]; Cell viability (%) (±St. Dev.; n = 3), FIG. 29E, HeLa, Protocol B, shuttle 50 μM, GFP-NLS 5 μM, 10 seconds, read-out: Cell viability (%) (±St. Dev.; n = 3), FIG. 29E",41.4 ± 3.91%
RRLSYSRRRFWEAKLAKALAKALAKHLAKALAKALKACEA [SynB3-KALA],"viability at 10 s, 50 µM",[1]; [6],91.1 ± 0.82%
RRRRRRRRRWEAKLAKALAKALAKHLAKALAKALKACEA [9Arg-KALA],"viability at 10 s, 50 µM",[1]; [6],62.8 ± 5.11%
"WEAKLAKALAKALAKHLAKALAKALKACEA [KALA, reference compound]","viability at 10 s, 50 µM",[1],84 ± 0.7%
"YARAAARQARA [PTD4, reference compound]","viability at 10 s, 50 µM","[1]; Cell viability (%) (±St. Dev.; n = 3), FIG. 29D, read-out: Cell viability (%) (±St. Dev.; n = 3), FIG. 29D",94 ± 4.5%
